Experimental data taken from PMC8214221, “Sequence determinants in the cathelicidin LL-37 that promote inflammation via presentation of RNA to scavenger receptors” (The Journal of Biological Chemistry, 2021).
Residues, ends and D or L forms follow the SMILES beside them.

Key:
[1] = system: NHEKs, IL6, IFNB1, TSLP, CXCL10 mRNA; test: qRT-PCR gene expression in NHEKs; type: cell-based, human; settings: 18 h / 8 h (Fig. 1 legend), n = 3; for Gene expression of IL6, IFNB1, and CXCL10, cotreatment with U1 dsRNA: U1 dsRNA 2.5 μg/ml + peptide 2 μM; for Gene expression of TSLP, peptide alone / Basal expression of IL6, IFNB1, and CXCL10, peptide alone: peptide 2 μM alone; for Gene expression of TSLP, peptide alone: GAPDH reference
Method: Protein levels of human IL-6 were analyzed from cell supernatant with ELISA (n = 3). Corresponding MIC values of LL-34 peptides L1A–R34A against Staphylococcus aureus USA300 are shown in the heat map. B, human dermal endothelial cells (HDMECs) were treated with either U1 dsRNA (2.5 μg/ml) or a combination of U1 dsRNA (2.5 μg/ml) and LL-34 peptides (Pep 1–Pep 34 and Pep–parent LL-34) at 2 μM for 18 h. IL-6 ELISA results are shown (n = 3). Green bars denote loss of IL-6 protein secretion compared with parent control shown in red. C, helical wheel plot for LL-34. Amino acids with green circles denote specific residues where replacement with an alanine caused the loss of IL-6 secretion compared with parent LL-34 peptide in NHEKs cotreated with U1 dsRNA. D, in the helical wheel plot for LL-34, circled green amino acids indicate that a substitution caused a loss of vetting in HDMEC. E–H, NHEKs were treated with LL-34-parent peptide (LL-34-P), LL-34-F5A, LL-34-I24A, LL-34-F27A, and LL-34-L31A at 2 μM, either individually or in combination with U1 dsRNA (2.5 μg/ml) for 8 h. Gene expression of IL-6, IFNB1, TSLP, and CXCL10 was assessed with qRT-PCR. GAPDH was used as a reference gene (n = 3) (∗p < 0.05; ∗∗∗∗p < 0.0001). One way-ANOVA was used. IL-6, interleukin 6; LL-34, 34-amino acid peptide; MIC, minimum inhibitory concentration, ns, not significant.
We further looked at mRNA abundance by quantitative RT-PCR (qRT-PCR) to evaluate gene expression for type 1 interferon IFNB1, chemokine CXCL10, and cytokines TSLP and IL6 in NHEKs treated with selected LL-34 parent, LL-34—F5A, I24A, F27A, and L31A—peptides either alone or in combination with U1 dsRNA for 18 h (Fig. 1, E–H).
RNA extracted from cells (Pure Link RNA Isolation Kit; Life Technologies) was quantified on the Nanodrop 2000/200C Spectrophotometer (Thermo Fisher Scientific). About 500 ng of purified RNA was used to synthesize complementary DNA with iScript cDNA Synthesis Kit (Bio-Rad). Predeveloped Taqman (Thermo Fisher Scientific) gene expression assays were used to evaluate mRNA transcript levels. Taqman cycling conditions were used as previously described ([9], [45]). All experiments were performed on a CFX96 system (Bio-Rad). Fold change relative to GAPDH was calculated using the Livak ΔΔCt method ([46]).

[2] = system: C57BL/6 mouse ear skin inflammation; test: Intradermal ear injection with U1 dsRNA in mice; type: in vivo; settings: 24 h; for Gene expression of IL-6 and CXCL10 in mouse ears: C57BL/6 female mice, intradermal ear coinjection of 25 μg U1 dsRNA and 16 μM peptide, qRT-PCR, mutants compared with U1 dsRNA + LL-34 parent; for Mast cells in mouse ear skin (flow cytometry) / Macrophage and neutrophil recruitment in mouse ear skin (flow cytometry): C57BL/6 mice, intradermal coinjection of 25 μg U1 dsRNA and 16 μM peptide, n = 3; for Mast cells in mouse ear skin (flow cytometry): frequency of gated live cells; for Macrophage and neutrophil recruitment in mouse ear skin (flow cytometry): mutants compared with LL-34 parent + U1 dsRNA
Method: C57BL/6 female mice at 8 weeks old were injected in the ears intradermally with a single injection of 25 μg of U1 dsRNA and/or LL-34 parent, Pep I24A, or Pep L31A. We investigated gene expression of IL-6, CXCL10, and TSLP in these mice (Fig. 2, B–D). […] This was in agreement with the in vitro results (Fig. 1). We also looked at the infiltration of immune cells to the mouse ear skin with flow cytometry.
Figure 2 LL-34-I24A and LL-34-L31A peptides loose vetting activity in vivo. C57BL/6 mice ears were injected intradermally with either 25 μg of U1 dsRNA, 16 μM LL-34-parent, LL-34-I24A, and LL-34-L31A as shown in the figure for 24 h (n = 6). A, H&E staining of cross sections of mice injected with U1 dsRNA or LL-34 peptides is shown. The bar represents […]. B–D, gene expression changes for IL-6, CXCL10, and TSLP were assessed with qRT-PCR. GAPDH was used as a reference gene. E–G, flow cytometry analysis was performed to assess the infiltration of immune cells in mouse ears injected with U1 dsRNA alone or a combination of U1 dsRNA and LL-34 peptides. Data are represented as the frequency of gated live cells for mast cells, macrophages, and neutrophils. (n = 3) (∗p < 0.05; ∗∗p < 0.01; ∗∗∗p < 0.001; ∗∗∗∗p < 0.0001). One way-ANOVA was used. LL-34, 34-amino acid peptide; ns, not significant.
All mouse procedures were approved by the University of California, San Diego (UCSD) Institutional Animal Care and Use Program (protocol number: S09074). Eight-week-old female C57BL/6 wildtype mice were used for experiments. C57BL/6 mice ears were injected intradermally with U1 dsRNA and/or LL-34 peptides as described previously ([7]). Single injections were performed. A total of 30 μl was injected in the middle part of the ear. Twenty-four hours after the injection, mice were euthanized with CO2 asphyxiation and ears excised and immediately collected in cold RPMI complete medium on ice and processed for immunohistochemistry, gene expression analysis, and flow cytometry within 1 h.
Mouse ears were collected following euthanasia in cold complete RPMI media on ice and cut into small pieces within 60 min, then digested with 2.5 mg/ml collagenase D, and 30 ng/ml DNase1 for 2 h at 37 °C and then filtered through a 30 μm filter to generate single-cell suspension for fluorescence-activated cell sorting analyses. Cells were then stained with Fixable Viability Dye eFluor 506 (eBioscience; 65-0866-14) blocked with antimouse CD16/32 (eBioscience; 14016185, 1:50 dilution), followed by staining with antibody cocktails for immune cells. The antibody cocktail for immune cells included PECy7-CD11b (BioLegend; 101216, 1:200 dilution), FITC-Ly6G (eBioscience; 11593182, 1:150 dilution), PE-F4/80 (eBioscience; 12480182, 1:200 dilution), APC-CD11C (BioLegend; 117310, 1:100 dilution), AF700-MHCII (eBioscience; 56532182, 1:100 dilution), and c-Kit (Biolegend; 10581, 1:100 dilution). Fluorescence-activated cell sorting analyses for surface expression of immune cell markers were performed by the Biorad ZE5 machine and analyzed by FlowJo V10 software (BD Biosciences). Dead cells were gated out from the analyses.

Row | Structure (SMILES) | Gene expression of IL6, IFNB1, and CXCL10, cotreatment with U1 dsRNA [1] | Gene expression of TSLP, peptide alone [1] | Basal expression of IL6, IFNB1, and CXCL10, peptide alone [1] | Gene expression of IL-6 and CXCL10 in mouse ears [2] | Mast cells in mouse ear skin (flow cytometry) [2] | Macrophage and neutrophil recruitment in mouse ear skin (flow cytometry) [2]
1 | CC[C@H](C)[C@H](NC(=O)[C@H](CCCCN)NC(=O)[C@H](CCC(=O)O)NC(=O)[C@H](CCCCN)NC(=O)[C@H](CO)NC(=O)[C@H](CCCCN)NC(=O)[C@H](CCCNC(=N)N)NC(=O)[C@H](Cc1ccccc1)NC(=O)[C@H](Cc1ccccc1)NC(=O)[C@H](CC(=O)O)NC(=O)CNC(=O)[C@H](CC(C)C)NC(=O)[C@@H](N)CC(C)C)C(=O)NCC(=O)N[C@@H](CCCCN)C(=O)N[C@@H](CCC(=O)O)C(=O)N[C@@H](Cc1ccccc1)C(=O)N[C@@H](CCCCN)C(=O)N[C@@H](CCCNC(=N)N)C(=O)N[C@H](C(=O)N[C@H](C(=O)N[C@@H](CCC(N)=O)C(=O)N[C@@H](CCCNC(=N)N)C(=O)N[C@H](C(=O)N[C@@H](CCCCN)C(=O)N[C@@H](CC(=O)O)C(=O)N[C@@H](Cc1ccccc1)C(=O)N[C@@H](CC(C)C)C(=O)N[C@@H](CCCNC(=N)N)C(=O)N[C@@H](CC(N)=O)C(=O)N[C@@H](C)C(=O)N[C@H](C(=O)N1CCC[C@H]1C(=O)N[C@@H](CCCNC(=N)N)C(=O)O)C(C)C)[C@@H](C)CC)C(C)C)[C@@H](C)CC [LL-34—L31A] (H-LLGDFFRKSKEKIGKEFKRIVQRIKDFLRNAVPR-OH) | reduction in gene expression | increased gene expression of TSLP | not affected | significantly reduced | significant decrease in mast cell number | significant reduction in macrophage and neutrophil recruitment
2 | CC[C@H](C)[C@H](NC(=O)[C@H](CCCCN)NC(=O)[C@H](CCC(=O)O)NC(=O)[C@H](CCCCN)NC(=O)[C@H](CO)NC(=O)[C@H](CCCCN)NC(=O)[C@H](CCCNC(=N)N)NC(=O)[C@H](Cc1ccccc1)NC(=O)[C@H](Cc1ccccc1)NC(=O)[C@H](CC(=O)O)NC(=O)CNC(=O)[C@H](CC(C)C)NC(=O)[C@@H](N)CC(C)C)C(=O)NCC(=O)N[C@@H](CCCCN)C(=O)N[C@@H](CCC(=O)O)C(=O)N[C@@H](Cc1ccccc1)C(=O)N[C@@H](CCCCN)C(=O)N[C@@H](CCCNC(=N)N)C(=O)N[C@H](C(=O)N[C@H](C(=O)N[C@@H](CCC(N)=O)C(=O)N[C@@H](CCCNC(=N)N)C(=O)N[C@@H](C)C(=O)N[C@@H](CCCCN)C(=O)N[C@@H](CC(=O)O)C(=O)N[C@@H](Cc1ccccc1)C(=O)N[C@@H](CC(C)C)C(=O)N[C@@H](CCCNC(=N)N)C(=O)N[C@@H](CC(N)=O)C(=O)N[C@@H](CC(C)C)C(=O)N[C@H](C(=O)N1CCC[C@H]1C(=O)N[C@@H](CCCNC(=N)N)C(=O)O)C(C)C)C(C)C)[C@@H](C)CC [LL-34—I24A] (H-LLGDFFRKSKEKIGKEFKRIVQRAKDFLRNLVPR-OH) | reduction in gene expression | increased gene expression of TSLP | not affected | significantly reduced | similarly increased mast cells | significant reduction in macrophage and neutrophil recruitment
